Source: patent EP0054589B1, “Organic phosphoric acid ester derivatives, a process for preparing the same and insecticidal, miticidal or nematocidal compositions containing the same” (priority 1980, dated 1982)
Like-named read-outs stand apart in the source and are kept apart here.

How the values were obtained:
[1] = tested on: rice stem borer; assay: Insecticidal effect on rice stem borer, 3rd-instar larvae (rice seedling dip); type: in vivo, Chilo suppressalis; settings: after 72 hours, 25°C
Method: (A) A wettable powder prepared as described in Formulation Example 5 was diluted with water to a predetermined concentration. Rice seedlings were dipped into the dilute solution and placed in a 60 ml volume cup made of vinyl chloride resin, and 10 3rd-instar larvae of rice stem borer were put in each cup. The cups were capped and maintained at 25°C.
(B) A wettable powder prepared as described in Formulation Example 7 was diluted with water to a predetermined concentration. Rice seedlings were dipped into the dilute solution and placed in a 60 ml volume cup made of vinyl chloride resin, and 10 3rd-instar larvae of rice stem borer were put in each cup. The cups were capped and maintained at 25°C.

[2] = tested on: tobacco cutworm; assay: Insecticidal effect on tobacco cutworm (cabbage leaf dip); type: in vivo, Prodenia litura; settings: after 48 hours, 25°C
Method: (A) An emulsifiable concentrate prepared as described in Formulation Example 1 was diluted with water to a predetermined concentration and then cabbage leaves were dipped into the dilute solution and dried in air and placed in a 60 ml volume cup made of vinyl chloride resin. 3rd-instar larvae of tobacco cutworm were put in each cup and maintained at 25°C. After 48 hours, percent mortality was assessed. The test was replicated 3 times for each compound using 30 insects in each test.
(B) An emulsifiable concentrate prepared as described in Formulation Example 3 was diluted with water to a predetermined concentration and then cabbage leaves were dipped into the dilute solution and dried in air and placed in a 60 ml volume cup made of vinyl chloride resin. 3rd-instar larvae of tobacco cutworm were put in each cup and maintained at 25°C. After 48 hours, percent mortality was assessed. The test was replicated 3 times for each compound using 30 insects in each test.

[3] = tested on: apple leaf miner; assay: Insecticidal effect on apple leaf miner (sprayed apple seedling); type: in vivo, Lithocolletis ringoniella; settings: Phyllonorycter ringoniella, 336 h, 500 ppm, fourteen days after spraying
Method: (A) A dilute water suspension of a wettable powder prepared as described in Formulation Example 5 was sufficiently sprayed using a spray-gun on a seedling of an apple tree planted in a bisque flower pot to which plant larvae of apple leaf miner just after hatching were parasitic. Thereafter the pots were placed in a green house. Fourteen days after the spraying, bores made by larvae were broken and percent mortality was assessed for all the leaves of each seedling. Three pots were used for each treatment.
(B) A dilute water suspension of a wettable powder prepared as described in Formulation Example 7 was sufficiently sprayed using a spray-gun on a seedling of an apple tree planted in a bisque flower pot to which plant larvae of apple leaf miner just after hatching were parasitic. Thereafter the pots were placed in a green house. Fourteen days after the spraying, bores made by larvae were broken and percent mortality was assessed for all the leaves of each seedling. Three pots were used for each treatment.

[4] = tested on: Cabbage; assay: Phytotoxicity on various crops; type: in vivo; design: key: Symbol — indicates that no toxicity was observed; settings: 500 ppm sprayed; checked visually after 10 days
Method: (§1) An emulsifiable concentrate prepared as described in Formulation Example 2 was diluted with water to a concentration of 500 ppm based on the effective ingredient and sprayed sufficiently using a spray-gun onto various test plants. The plants were kept in a green house. After 10 days from the application phytotoxicity was checked visually. The test was replicated 3 times for each compound.

[5] = tested on: Green Pepper; assay: Phytotoxicity on various crops; type: in vivo; design: key: Symbol — indicates that no toxicity was observed; settings: 500 ppm sprayed; checked visually after 10 days
Method: as §1

[6] = tested on: Apple; assay: Phytotoxicity on various crops; type: in vivo; design: key: Symbol — indicates that no toxicity was observed; settings: 500 ppm sprayed; checked visually after 10 days
Method: as §1

[7] = tested on: egg plant; assay: Phytotoxicity on various crops; type: in vivo; design: key: Symbol — indicates that no toxicity was observed; settings: 500 ppm sprayed; checked visually after 10 days
Method: as §1

[8] = tested on: Beet; assay: Phytotoxicity on various crops; type: in vivo; design: key: Symbol — indicates that no toxicity was observed; settings: 500 ppm sprayed; checked visually after 10 days
Method: as §1

[9] = tested on: Rice; assay: Phytotoxicity on various crops; type: in vivo; design: key: Symbol — indicates that no toxicity was observed; settings: 500 ppm sprayed; checked visually after 10 days
Method: as §1

[10] = tested on: Kidney Bean; assay: Phytotoxicity on various crops; type: in vivo; design: key: Symbol — indicates that no toxicity was observed; settings: 500 ppm sprayed; checked visually after 10 days
Method: as §1

[11] = tested on: Tomato; assay: Phytotoxicity on various crops; type: in vivo; design: key: Symbol — indicates that no toxicity was observed; settings: 500 ppm sprayed; checked visually after 10 days
Method: as §1

[12] = tested on: Tea; assay: Phytotoxicity on various crops; type: in vivo; design: key: Symbol — indicates that no toxicity was observed; settings: 500 ppm sprayed; checked visually after 10 days
Method: as §1

[13] = tested on: Cucumber; assay: Phytotoxicity on various crops; type: in vivo; design: key: Symbol — indicates that no toxicity was observed; settings: 500 ppm sprayed; checked visually after 10 days
Method: as §1

[14] = tested on: Cotton; assay: Phytotoxicity on various crops; type: in vivo; design: key: Symbol — indicates that no toxicity was observed; settings: 500 ppm sprayed; checked visually after 10 days
Method: as §1

[15] = tested on: diamond back moth; assay: Insecticidal effect on diamond-back moth (cabbage leaf dip); type: in vivo, Plutella xylostella; settings: Table 8; 100 ppm; after 72 hours, 25°C; emulsifiable concentrate as Formulation Example 4
Method: (A) An emulsifiable concentrate prepared as described in Formulation Example 1 was diluted with water to a predetermined concentration and leaves of a cabbage were dipped into the dilute emulsion for 10 seconds followed by drying in air, and charged in a 60 ml volume cup made of vinyl chloride resin. Then, thirty 3rd-instar larvae of diamond back moth were put in each cup, and the cups were kept at 25°C. After 72 hours, percent mortality was assessed and the test was replicated 3 times for each treatment.
(B) An emulsifiable concentrate prepared as described in Formulation Example 4 was diluted with water to a predetermined concentration and leaves of a cabbage were dipped into the dilute emulsion for 10 seconds followed by drying in air, and charged in a 60 ml volume cup made of vinyl chloride resin. Then, thirty 3rd-instar larvae of diamond back moth were put in each cup, and the cups were kept at 25°C. After 72 hours, percent mortality was assessed and the test was replicated 3 times for each treatment.

[16] = tested on: tobacco cutworm; assay: Long-lasting insecticidal effect on tobacco cutworm (sprayed cabbage plantlet); type: in vivo, Prodenia litura; settings: concentration 500 (unit not given), mortality after 48 hours; for Percent Mortality After Application 3rd Day: leaves cut on 3rd day; for Percent Mortality After Application 5th Day: leaves cut on 5th day; for Percent Mortality After Application 7th Day: leaves cut on 7th day; for Percent Mortality After Application 10th Day: leaves cut on 10th day
Method: (§2) (A) An emulsifiable concentrate prepared as described in Formulation Example 2 was diluted with water to a predetermined concentration and sprayed onto a cabbage plantlet in a flower pot of 15 cm in diameter using a spray-gun sufficiently and the tests plants were placed in a green house. The leaves of the plants were cut off on the 3rd, 5th, 7th, 10th and 15th day and placed in a 60 ml volume cup and 3rd-instar larvae of tobacco cutworm were put in each cup. The cups were kept in an incubator (25°C). After 48 hours, percent mortality was assessed. The tests was replicated 3 times for each compound using 30 insects in each test.
as §2, with “(B) An” for “(A) An”, “Example 3” for “Example 2”, “and 1 5th” for “and 15th”

[17] = tested on: smaller tea tortrix; assay: Insecticidal effect on smaller tea tortrix (apple leaf dip); type: in vivo; settings: Adoxophyes orana, foliar, read-out: Percent Mortality
Method: Leaves of an apple tree were dipped into a dilute water suspension of a wettable powder prepared as described in Formulation Example 5. After drying in air, the leaves were charged in a 60 ml volume cup made of vinyl chloride resin, and […] 3rd-instar larvae of smaller tea tortrix were put in each cup. The cups were capped and kept at 25°C. After 72 hours, the number of the surviving insects and the dead insects were recorded to determine percent mortality. In each treatment, 3 cups and 30 insects were used in total.

[18] = Table 1, 500 ppm, wettable powder as Formulation Example 5
[19] = Table 2, 100 ppm, wettable powder as Formulation Example 7
[20] = Table 4, 100 ppm, emulsifiable concentrate as Formulation Example 3
[21] = Table 10, wettable powder as Formulation Example 5, read-out: Percent Morality (%)

| Compound | Percent Mortality (%) [1, 18] [%] | Percent Mortality (%) [1, 19] [%] | Percent Mortality (%) [2, 20] [%] | mortality at 500 ppm [3, 21] [%] | Phytotoxicity: Cabbage [4] | Phytotoxicity: Green Pepper [5] | Phytotoxicity: Apple [6] | Phytotoxicity: Egg Plant [7] | Phytotoxicity: Beet [8] | Phytotoxicity: Rice [9] | Phytotoxicity: Kidney Bean [10] | Phytotoxicity: Tomato [11] | Phytotoxicity: Tea [12] | Phytotoxicity: Cucumber [13] | Phytotoxicity: Cotton [14] | Percent Mortality After Application 3rd Day ([16]; Table 6) [%] | Percent Mortality After Application Immediately after Application ([16]; Table 6) [%] | other results |
| --- | --- | --- | --- | --- | --- | --- | --- | --- | --- | --- | --- | --- | --- | --- | --- | --- | --- | --- |
| CCOP(=O)(Oc1ccc2c(c1)OC(CC)=C(C)C2(CC)CC)SC(C)CC (centres unmarked) [Compound No. 19] | 100 | 100 | 100 | 100 | — | — | — | — | — | — | — | — | — | — | — |  |  | Percent Mortality (%) ([1]; Table 1, 100 ppm, wettable powder as Formulation Example 5): 100% |
| CCC(C)SP(=O)(OC)Oc1ccc2c(c1)OC(C)(C)C=C2C (centres unmarked) [Compound No. 24] |  | 100 | 100 |  | — | — | — | — | — | — | — | — | — | — | — | 100 | 100 | Percent Mortality (%) [15]: 100%; Percent Mortality After Application 5th Day ([16]; Table 6): 93.3%; Percent Mortality After Application 7th Day ([16]; Table 6): 60.0%; Percent Mortality After Application 10th Day ([16]; Table 6): 23.3%; mortality at 500 ppm ([3]; Table 11, wettable powder as Formulation Example 7, read-out: Percent Mortality (%)): 100% |
| CCOP(=S)(OCC)Oc1cc(C)nc(C(C)C)n1 [Diazinon, 0,0-diethyl (O-2-isopropyl-6-methyl-pyrimidin-4-yl)phosphorothioate, reference compound] |  |  |  |  |  |  |  |  |  |  |  |  |  |  |  |  |  | mortality at 100 ppm ([17]; 72 h): 43.3% |
| COP1(=S)OCc2ccccc2O1 (centres unmarked) [Salithion, 2-methoxy-4H-benzo-1,3,2-dioxaphosphorin 2-sulphide, reference compound] |  |  |  | 95 |  |  |  |  |  |  |  |  |  |  |  | 0 | 100 | Percent Mortality After Application 3rd Day ([16]; Table 5): 20%; Percent Mortality After Application 5th Day ([16]; Table 5): 0%; Percent Mortality After Application 7th Day ([16]; Table 5): 0%; Percent Mortality After Application 10th Day ([16]; Table 5): 0%; Percent Mortality After Application 15th Day ([16]; Table 5, leaves cut on 15th day): 0% |
| CCOP(=O)(Oc1ccc2c(c1)OC(C)=CC2(C)C)SC(C)C (centres unmarked) [compound 14] | 100 |  |  |  | — | — | — | — | — | — | — | — | — | — | — |  |  | Percent Mortality (%) ([2]; Table 3, 500 ppm, emulsifiable concentrate as Formulation Example 1): 100%; mortality at 100 ppm ([17]; Table 9, 100 ppm, after 72 hours, 25°C, wettable powder as Formulation Example 5): 83.3% |
